Measurements reported in US4448962A, “Substituted quinoline carboxylic acid derivatives” (Kyorin Seiyaku Kabushiki Kaisha, priority 1978, dated 1984).
Values after ≈ are worked out from the molar mass of the structure shown. Counter-ions that a name gives are not always drawn. Like-named read-outs stand apart in the source and are kept apart here.

Assays:
Assay in all cases: Antibacterial spectrum (Minimum Inhibitory Concentration)
Type in all cases: cell-based
E. coli ATCC 10536 = settings: Escherichia coli
From the text: (§1) The antibacterial tests were done according to the method authorized by the Chemotherapeutic Society of Japan.

[1] = system: Escherichia coli NIHJ JC-2
From the text: as §1

[2] = system: Klebsiella pneumoniae IFO 3512
From the text: as §1

Pr. vulgaris XK Denken = settings: Proteus vulgaris, read-out: Minimum Inhibitory Concentration
From the text: as §1

[3] = system: Proteus vulgaris IFO 3167
From the text: as §1

Ps. aeruginosa IFO 12689 = settings: Pseudomonas aeruginosa
From the text: as §1

[4] = system: Pseudomonas aeruginosa V-1
From the text: as §1

[5] = system: Bacillus subtilis PCI 219
From the text: as §1

Sta. aureus ATCC 14775 = settings: Staphylococcus aureus
From the text: as §1

[6] = system: Staphylococcus aureus 209P; settings: read-out: Minimum Inhibitory Concentration
From the text: as §1

Ps. aeruginosa IID 1130 = settings: Pseudomonas aeruginosa, IID1130, read-out: Minimum Inhibitory Concentration
From the text: as §1

Ps. aeruginosa IID 1210 = settings: Pseudomonas aeruginosa, IID1210, read-out: Minimum Inhibitory Concentration
From the text: as §1

[7] = ATCC10536, E. coli ATCC 10536, Gram -, read-out: Minimum Inhibitory Concentration
[8] = NIHJJC2, Escherichia coli NIHJ JC-2, Gram -, read-out: Minimum Inhibitory Concentration
[9] = IFO3512, Klebsiella pneumoniae IFO 3512, Gram -, read-out: Minimum Inhibitory Concentration
[10] = IFO3167, Proteus vulgaris IFO 3167, Gram -, read-out: Minimum Inhibitory Concentration
[11] = IFO12689, read-out: Minimum Inhibitory Concentration
[12] = V1, Pseudomonas aeruginosa V-1, Gram -, read-out: Minimum Inhibitory Concentration
[13] = Bacillus subtilis, PCI219, read-out: Minimum Inhibitory Concentration
[14] = ATCC10536, read-out: Minimum Inhibitory Concentration
[15] = Escherichia coli, NIHJJC2, read-out: Minimum Inhibitory Concentration
[16] = Klebsiella pneumoniae, IFO3512, read-out: Minimum Inhibitory Concentration
[17] = Proteus vulgaris, IFO3167, read-out: Minimum Inhibitory Concentration
[18] = Pseudomonas aeruginosa, V1, read-out: Minimum Inhibitory Concentration
[19] = ATCC14775, read-out: Minimum Inhibitory Concentration
[20] = PCI219, Bacillus subtilis PCI 219, Gram +, read-out: Minimum Inhibitory Concentration
[21] = IFO12689, Ps. aeruginosa IFO 12689, Gram -, read-out: Minimum Inhibitory Concentration
[22] = Staphylococcus aureus 209P, Gram +
[23] = ATCC14775, Sta. aureus ATCC 14775, Gram +, read-out: Minimum Inhibitory Concentration

Row | SMILES | MIC (E. coli ATCC 10536; [7]) [µg/mL] | MIC [1, 8] [µg/mL] | MIC [2, 9] [µg/mL] | MIC (Pr. vulgaris XK Denken; Pr. vulgaris XK Denken, Gram -) [µg/mL] | MIC [3, 10] [µg/mL] | MIC (Ps. aeruginosa IFO 12689; [11]) [µg/mL] | MIC [4, 12] [µg/mL] | MIC [5, 13] [µg/mL] | MIC (E. coli ATCC 10536; [14]) [µg/mL] | MIC [1, 15] [µg/mL] | MIC [2, 16] [µg/mL] | MIC (Pr. vulgaris XK Denken) [µg/mL] | MIC [3, 17] [µg/mL] | MIC [4, 18] [µg/mL] | MIC (Sta. aureus ATCC 14775; [19]) [µg/mL] | MIC ([6]; Staphylococcus aureus, 209P) [µg/mL] | MIC [5, 20] [µg/mL] | MIC (Ps. aeruginosa IFO 12689; [21]) [µg/mL] | MIC [6, 22] [µg/mL] | also measured
1 | CCN1CCN(c2cc3c(cc2F)c(=O)c(C(=O)O)cn3CC)CC1 [Example 2, 1-ethyl-6-fluoro-7-(4-ethyl-1-piperazinyl)-4-oxo-1,4-dihydroquinoline-3-carboxylic acid] | 0.1 (≈ 0.288 µM) | 0.1 (≈ 0.288 µM) | < 0.025 | 0.2 (≈ 0.576 µM) | 0.2 (≈ 0.576 µM) | 6.25 (≈ 18 µM) | 3.13 (≈ 9.01 µM) |  |  |  |  |  |  |  |  |  |  |  |  | 
2 | Cl.Cn1cc(C(=O)O)c(=O)c2cc(F)c(N3CCNCC3)cc21 [Example 18, 1-methyl-6-fluoro-7-(1-piperazinyl)-4-oxo-1,4-dihydroquinoline-3-carboxylic acid hydrochloride] |  |  |  |  |  | 3.13 |  | 0.78 | 0.39 | 0.39 | 0.39 | 1.56 | 0.39 | 1.56 | 12.5 | 6.25 |  |  |  | 
3 | C=Cn1cc(C(=O)O)c(=O)c2cc(F)c(N3CCNCC3)cc21.Cl [Example 3, 1-vinyl-6-fluoro-7-(1-piperazinyl)-4-oxo-1,4-dihydro-quinoline-3-carboxylic acid hydrochloride] |  |  |  |  |  | 1.56 |  | 0.39 | 0.1 | 0.1 | 0.1 | 0.39 | 0.2 | 0.39 | 6.25 | 3.13 |  |  |  | MIC (Ps. aeruginosa IID 1130): 1.56 µg/mL; MIC (Ps. aeruginosa IID 1210): 1.56 µg/mL
4 | CCn1cc(C(=O)O)c(=O)c2cc(Cl)c(N3CCN(C)CC3)cc21 [Example 9, 1-ethyl-6-chloro-7-(4-methyl-1-piperazinyl)-4-oxo-1,4-dihydro-quinoline-3-carboxylic acid] | 0.78 (≈ 2.23 µM) | 1.56 (≈ 4.46 µM) |  | 0.78 (≈ 2.23 µM) | 0.78 (≈ 2.23 µM) |  | 25 (≈ 71.5 µM) |  |  |  | < 0.2 |  |  |  |  |  | 0.78 (≈ 2.23 µM) | 50 (≈ 143 µM) | 1.56 (≈ 4.46 µM) | 
5 | C=CCn1cc(C(=O)O)c(=O)c2cc(F)c(N3CCNCC3)cc21 [Example 21, hydrochloride] | 0.2 | 0.2 | 0.2 | 0.39 | 0.2 | 6.25 | 1.56 |  |  |  |  |  |  |  |  |  | 0.78 |  | 3.13 | MIC (Sta. aureus ATCC 14775; [23]): 6.25 µg/mL
6 | CCn1cc(C(=O)O)c(=O)c2cc(Cl)c(N3CCN(C(=O)C(F)(F)F)CC3)cc21 [Example 12, 1-ethyl-6-chloro-7-(4-trifluoroacetyl-1-piperazinyl)-4-oxo-1,4-dihydroquinoline-3-carboxylic acid] | 0.78 (≈ 1.81 µM) |  | 0.78 (≈ 1.81 µM) | 0.78 (≈ 1.81 µM) | 0.78 (≈ 1.81 µM) |  | 25 (≈ 57.9 µM) |  |  | 3.13 (≈ 7.25 µM) |  |  |  |  |  |  | 0.78 (≈ 1.81 µM) | 50 (≈ 116 µM) | 1.56 (≈ 3.61 µM) | 
7 | Cl.O=C(O)c1cn(CCO)c2cc(N3CCNCC3)c(F)cc2c1=O [Example 25, 1-(2-hydroxyethyl)-6-fluoro-7-(1-piperazinyl)-4-oxo-1,4-dihydroquinoline-3-carboxylic acid hydrochloride] |  |  |  |  |  | > 25 |  | 1.56 | 0.2 | 0.39 | 0.05 | 3.13 | 0.2 | 3.13 | > 25 | 1.56 |  |  |  | 
8 | CC(=O)N1CCN(c2cc3c(cc2F)c(=O)c(C(=O)O)cn3CCO)CC1 [Example 26, 1-(2-hydroxyethyl)-6-fluoro-7-(4-acetyl-1-piperazinyl)-4-oxo-1,4-dihydroquinoline-3-carboxylic acid] | 25 (≈ 66.2 µM) | > 25 | 6.25 (≈ 16.6 µM) | > 25 | > 25 |  | > 25 |  |  |  |  |  |  |  |  |  | 12.5 (≈ 33.1 µM) | > 25 | > 25 | MIC (Sta. aureus ATCC 14775; [23]): > 25 µg/mL
9 | CCn1cc(C(=O)O)c(=O)c2cc(Cl)c(N3CCN(C4OC(=O)c5ccccc54)CC3)cc21 (centres unmarked) [Example 15, 1-ethyl-6-chloro-7-(4-phthalidyl-1-piperazinyl)-4-oxo-1,4-dihydroquinoline-3-carboxylic acid] | 0.2 (≈ 0.427 µM) | 0.2 (≈ 0.427 µM) | 0.78 (≈ 1.67 µM) | 0.39 (≈ 0.833 µM) | 0.39 (≈ 0.833 µM) |  | 6.25 (≈ 13.4 µM) |  |  |  |  |  |  |  |  |  | 0.78 (≈ 1.67 µM) | 12.5 (≈ 26.7 µM) | 1.56 (≈ 3.33 µM) | 
